Source: ChEMBL document CHEMBL1629429, “SAR studies of gymnasterkoreayne derivatives with cancer chemopreventive activities” (Bioorg Med Chem Lett, 2010)

Experiments:
[1] = Chemoprevention index, ratio of IC50 for mouse Hepa-1c1c7 cells to drug level required to double specific NADPH:quinone reductase activity in mouse Hepa-1c1c7 cells; format: functional
[2] = Cytotoxicity against mouse Hepa-1c1c7 cells; format: cell-based

Row | SMILES | Ratio IC50 [1] | IC50 [2]
1 | CCC/C=C/C(O)C#CC#C[C@@H](O)[C@H](C)O (some centres undefined) | 14.77 | 422 µM
2 | C=CCCCCC/C=C\C(O)C#CC#C[C@H](O)[C@H](C)O (some centres undefined) | 18.39 | 252 µM
3 | CCCCCCCCCC(O)CCCC[C@@H](O)[C@H](C)O (some centres undefined) | – | > 500 µM
4 | CCCCCC(O)C#CC#C[C@@H](O)[C@H](C)O (relative stereo) | >31.66 | > 500 µM
5 | CCCCCCC(O)C#CC#C[C@@H](O)[C@H](C)O (relative stereo) | 25.66 | 223 µM
6 | CC(C)=CC(O)C#CC#C[C@@H](O)[C@H](C)O (relative stereo) | 17.02 | 406 µM
7 | C[C@H](O)[C@H](O)C#CC#CC(O)C1CCCCC1 (relative stereo) | >3.8 | > 500 µM
8 | C[C@H](O)[C@H](O)C#CC#CC(O)c1ccccc1 (relative stereo) | >13.57 | > 500 µM
9 | C[C@H](O)[C@H](O)C#CC#CC(O)Cc1ccccc1 (relative stereo) | >8.64 | > 500 µM
10 | CCCCCCCCCC(O)C#CC#C[C@H](O)[C@H](C)O (relative stereo) | 30.13 | 64.2 µM
11 | CCCCCC(O)C#CC#C[C@H](O)[C@H](C)O (relative stereo) | >38.6 | > 500 µM
12 | C=CCCCCC/C=C\C(O)C#CC#C[C@@H](O)[C@H](C)O (relative stereo) | 10.51 | 88.6 µM
13 | CCCCCCCCCC(O)C#CC#C[C@@H](O)[C@H](C)O (relative stereo) | 7.44 | 39.8 µM
14 | C=CC(O)C#CC#C[C@@H](O)[C@H](C)O (relative stereo) | 1.12 | 177 µM
15 | C=CCCCCC/C=C\[C@H](O)C#CC#CC1OC1C (some centres undefined) [GYMNASTERKOREAYNE B] | 9.57 | 70.6 µM
